pIC50: −log10 of the molar value.
How the values were obtained:
[1] = test system: HDAC; test: HDAC fluorimetric assay kit (AK-500, Biomol), HeLa nuclear extract; type: biochemical; conditions: Fluor de Lys substrate, 1 hour reaction, read-out: HDAC IC50 (grade)
Description: (a) An In Vitro Assay which Determines the Ability of a Test Compound to Inhibit HDAC Enzymatic Activity.
HDAC inhibitors were screened using an HDAC fluorimetric assay kit (AK-500, Biomol, Plymouth Meeting, Pa.). Test compounds were dissolved in dimethylsulphoxide (DMSO) to give a 20 mM working stock concentration. Fluorescence was measured on a WALLAC Victor 2 plate reader and reported as relative fluorescence units (RFU). Data were plotted using GraphPad Prism (v4.0a) and IC50's calculated using a sigmoidal dose response curve fitting algorithm.
Each assay was setup as follows: Defrosted all kit components and kept on ice until use. Diluted HeLa nuclear extract 1:29 in Assay Buffer (50 mM Tris/Cl, pH 8.0, 137 mM NaCl, 2.7 mM KCl, 1 mM MgCl2). Prepared dilutions of Trichostatin A (TSA, positive control) and tested compounds in assay buffer (5× of final concentration). Diluted Fluor de Lys™ Substrate in assay buffer to 100 uM (50 fold=2× final). Diluted Fluor de Lys™ developer concentrate 20-fold (e.g. 50 μl plus 950 μl Assay Buffer) in cold assay buffer. Second, diluted the 0.2 mM Trichostatin A 100-fold in the 1× Developer (e.g. 10 μl in 1 ml; final Trichostatin A concentration in the 1× Developer=2 μM; final concentration after addition to HDAC/Substrate reaction=1 μM). Added Assay buffer, diluted trichostatin A or test inhibitor to appropriate wells of the microtiter plate. Added diluted HeLa extract or other HDAC sample to all wells except for negative controls. Allowed diluted Fluor de Lys™ Substrate and the samples in the microtiter plate to equilibrate to assay temperature (e.g. 25 or 37° C. Initiated HDAC reactions by adding diluted substrate (25 μl) to each well and mixing thoroughly. Allowed HDAC reactions to proceed for 1 hour and then stopped them by addition of Fluor de Lys™ Developer (50 μl). Incubated plate at room temperature (25° C.) for 10-15 min. Read samples in a microtiter-plate reading fluorimeter capable of excitation at a wavelength in the range 350-380 nm and detection of emitted light in the range 440-460 nm.

[2] = test system: ER mRNA expression in human ER-negative breast cancer cell lines; conditions: cited from earlier work
[3] = test system: gelatinase A (MMP2; Type IV collagenase); conditions: 3T3 cells; cited from earlier work

Row | SMILES | pIC50 [1] | further results
1 | Nc1ccc(C(=O)NCCNCCC(=O)NO)cc1 [Compound 25] | < 5.00 | –
2 | CCN(CCNC(=O)c1ccc(N)cc1)C(=O)CCC(=O)NO [Compound 34, N^1-(2-(4-aminobenzamido)ethyl)-N^1-ethyl-N^4-hydroxysuccinamide] | < 5.00 | –
3 | CC(/C=C/C(=O)NO)=C\[C@@H](C)C(=O)c1ccc(N(C)C)cc1 [TSA, trichostatin A] | – | increase in ER mRNA expression [2]: 5 fold; mRNA as well as zymographic activity of gelatinase A (MMP2) [3]: decreases
4 | CCN(CCNC(=O)c1ccc(N)cc1)C(=O)CCCCC(=O)NO [Compound 36, N^1-(2-(4-aminobenzamido)ethyl)-N^1-ethyl-N^6-hydroxyadipamide] | 5.00 to 6.00 | –

Further lines, with some results ahead:

Row | pIC50 [1] | SMILES | further results
5 | < 5.00 | Nc1ccc(C(=O)NCCNCCC(=O)CCC(=O)NO)cc1 [Compound 28] | –
6 | 5.00 to 6.00 | Nc1ccc(C(=O)NCCNC(=O)CCCCC(=O)NO)cc1 [Compound 30] | –
7 | 6.00 to 7.00 | Nc1ccc(C(=O)NCCNC(=O)CCCC(=O)NO)cc1 [Compound 29, N-hydroxy-4-(2-(4-aminobenzamido)-ethylcarbamoyl)butanamide] | melting point: 158.9 to 159.8 °C
